This passage reports IC50 and inhibition results from patent US10774082B2, “Quinazoline compound” (Astellas Pharma Inc., priority 2017, dated 2020).

Assay [1] addresses T1, KRAS G12C/SOS/c-Raf complex (Homo sapiens, UniProt P01116, G12C).
T1 construct: Biotinylated AviTag-KRAS G12C (amino acid region 1-185, GDP)
The assay is described as follows: KRAS G12C/SOS/c-Raf complex formation inhibitory action (TR-FRET). The class given is biochemical. The settings on record: one hour at room temperature, read-out: IC50 (KRAS G12C/SOS/c-Raf complex formation inhibition). A digest of the protocol:
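Biotin-AviTag KRAS G12C (1-185, GDP-bound) was mixed with compound (4,000 to 4 nM stock dilutions), SOS (564-1049), GST-c-Raf (51-131) and GTP in pH 7.4 HEPES/NaCl/MgCl2/Tween buffer for 1 h at room temperature. Complex formation was read by TR-FRET with Eu-streptavidin and ULight-anti-GST (ex 337 nm, em 620/665 nm).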
On the technique in general: In TR-FRET formats the signal depends on donor and acceptor labels being close together.

Assay [2] deals with pERK in NCI-H1373 tumor. The assay is described as follows: Intratumoral pERK inhibitory action in NCI-H1373 tumor of nude mice (TR-FRET). It is filed as in vivo, mouse. The note with it: Mus musculus, 6 h, tumor six hours after administration. How it is done: Evaluation of Intratumoral pERK Inhibitory Action
The phosphorylation amount of ERK in tumor sample after administration of test compound was examined by using pERK measurement kit (Advanced ERK phospho-T202/Y204 kit, Cisbio co., Ltd) through a TR-FRET method.
2.0 to 5.0×10^6 NCI-H1373 cells were prepared by using a solution in which an equivalent amount of Matrigel (Becton. Dickinson and Company) was added to PBS, were injected subcutaneously in a volume of 100 μL and planted to male nude mice of 4-5 weeks old (CAnN.Cg-Foxn 1 nu/CrlCrlj (nu/nu), Charles River Laboratories Japan, Inc.), and then the male nude mice were used for the test 15 to 26 days later. The test was conducted with three mice in a solvent group and three mice in a test compound administration group, and the test compounds were prepared by using a solvent such that the dosage thereof is as indicated in Table 4. The test compound was administered subcutaneously or orally. For subcutaneous administration, physiological saline supplemented with equimolar hydrochloric acid was used as a solvent. For oral administration, 6% 2-hydroxypropyl-β-cyclodextrin (Sigma-Aldrich Co. LLC) was used as a solvent. Six hours after the administration, a tumor was excised from a cervical dislocated mouse under isoflurane anesthesia, and a part thereof was put into a 2 mL Eppendorf tube and frozen using liquid nitrogen. The tumor sample was stored in a deep freezer at −80° C. until it was subjected to the pERK measurement test.
500 μL of lysis buffer 1 (Phospholysis buffer [Cisbio Co., Ltd], Complete EDTA free [Roche Diagnostics K.K.], Phosphatase inhibitor cocktail 2 [Sigma-Aldrich Co. LLC]) and one bead (5 mm YTZ ball [Nikkato Corp.]) was added to the tumor sample, and crushed (frequency 25/s for 3 minutes) by using Tissue Lyser II (QIAGEN GmbH). The whole amount was transferred to a new tube and centrifuged (20,400×g for 10 minutes, 4° C.) by using a micro amount high speed cooling centrifuge so as to obtain a tumor lysate which is a supernatant. Protein quantification of tumor lysate was performed by using a protein quantification kit (Pierce 660 nm Protein Assay Kit [Thermo Fisher Scientific Inc.]), and each sample was diluted by using lysis buffer 2 (Phosphorysis buffer [Cisbio Co., Ltd], Blocking Agent [attached to pERK measurement kit]) such that the amount thereof is to be a final concentration of 0.5 μg/μL.
Each of p-ERK1/2 Cryptate antibody and p-ERK1/2 d2 antibody (attached to pERK measurement kit) was diluted 20-fold with each detection buffer (attached to pERK measurement kit), and thereby a mixed solution of these two types of antibodies was prepared. A mixed solution of antibody was added to a 384 well plate at a volume of 4 μL/well. Further, tumor lysate diluted to 0.5 μg/μL was added at a volume of 16 μL/well. After standing at room temperature in a wet box for about 17 hours, the fluorescence intensity at 620 nm and 665 nm was measured under the condition of excitation wavelength of 337 nm by using EnVision 2103 Multilabel Reader (PerkinElmer Co., Ltd.).

The subject of assay [3] is NCI-H1373 cells. The assay can be described thus: Anchorage-independent cell proliferation inhibitory action, NCI-H1373 spheroid three-dimensional culture. The settings on record: Homo sapiens, NCI-H1373, 144 h, NCI-H1373 spheroid, six days, CellTiter Glo; read-out: IC50 (anchorage-independent cell proliferation inhibition). It is filed as cell-based, Human. A digest of the protocol:
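KRAS G12C NCI-H1373 cells were grown as spheroids in low-attachment U-bottom wells and treated the next day with compound, six points from 1,000 to 0.3 nM final. After six days at 37°C, viability was read by CellTiter-Glo luminescence. IC50 was fitted by Sigmoid-Emax regression, with DMSO set as 0% and cell-free medium as 100% inhibition.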
A general note: Cellular ATP, detected with luciferase, serves as a proxy for viable cell number.

The test system of assay [4] is ERK phosphorylation (Thr 202/Tyr 204) in NCI-H1373 cells. The assay is described as follows: ERK phosphorylation inhibitory action in NCI-H1373 (Cell ELISA). It is filed as cell-based, Human. The settings on record: Homo sapiens, NCI-H1373, 2 h, NCI-H1373 cells, cultured for 2 hours, 100% = 1 μM Trametinib; read-out: IC50 (ERK phosphorylation inhibition). A digest of the protocol: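 KRAS G12C NCI-H1373 cells (2×10^4/well) were treated with compound (six points, 1,000–0.3 nM final) for 2 h. Phospho-ERK Thr202/Tyr204 was measured by in-cell ELISA with an IRDye 800CW secondary antibody. IC50 was fitted by sigmoid-Emax regression against DMSO (0%) and 1 μM trametinib (100%).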

The term inhibition denotes how much of the control response was suppressed.

T1 sequence (P01116 1-185 isoform P01116-2 G12C, one chain of several): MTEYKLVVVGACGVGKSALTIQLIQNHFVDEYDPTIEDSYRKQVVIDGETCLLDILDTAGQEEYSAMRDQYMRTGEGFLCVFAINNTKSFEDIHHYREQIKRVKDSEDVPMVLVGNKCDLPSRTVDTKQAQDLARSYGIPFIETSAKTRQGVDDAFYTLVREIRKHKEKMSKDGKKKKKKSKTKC

For the compound `C=CC(=O)N1CC2(CCN(c3nc(OC4CCN(C)CC4)nc4c(OCC)c(-c5c(C)ccc6[nH]ncc56)c(C=C)cc34)CC2)C1` [Ex 5], in assay [1], the IC50 is 31 nM. Further, in assay [2] (NCI-H1373, sc, Subcutaneous administration, 3 mg/kg, read-out: pERK inhibition (%)), the inhibition at 3 mg/kg came to 72%.
Turning to `C=CC(=O)N1CC2(CCN(c3nc(OC4CCN(CC(C)(C)O)CC4)nc4c(OCC(F)(F)F)c(-c5c(C)ccc6[nH]ncc56)c(C=C)cc34)CC2)C1` [Ex 31], the IC50 came to 45 nM in assay [1] and 8.3 nM in assay [3]. The compound also yielded an inhibition at 10 mg/kg in assay [2] (NCI-H1373, po, Oral administration, 10 mg/kg) of 51%.
`C=CC(=O)N1CC2(CCN(c3nc(OC4CCN(CCOC)CC4)nc4c(OCC(F)(F)C(F)(F)F)c(-c5c(C)ccc6[nH]ncc56)c(C=C)cc34)CC2)C1` [Example 79]: the values for the IC50 in assay [1], in assay [4] and in assay [3] were 57 nM, 16 nM and 43 nM, respectively.
On the same counts, the results for `C=CC(=O)N1CC2(CCN(c3nc(OC4CCN(CC(F)(F)F)CC4)nc4c(OCC(F)(F)F)c(-c5c(C)ccc6[nH]ncc56)c(C=C)cc34)CC2)C1` [Example 80] are 166 nM, 16 nM and 75 nM.
With `C=CC(=O)N1CC2(CCN(c3nc(OC4CCN(CCS(C)(=O)=O)CC4)nc4c(OCC(F)(F)F)c(-c5c(C)ccc6[nH]ncc56)c(C=C)cc34)CC2)C1` [Example 81], the results for the IC50 in assay [1], in assay [4] and in assay [3] were 41 nM, 16 nM and 26 nM, respectively.
As to `C=CC(=O)N1CC2(CCN(c3nc(OC4CCN(CCCOC(F)(F)F)CC4)nc4c(OCC(F)(F)F)c(-c5c(C)ccc6[nH]ncc56)c(C=C)cc34)CC2)C1` [Example 83], the figures for the IC50 in assay [1], in assay [4] and in assay [3] were 108 nM, 16 nM and 51 nM, respectively.
The corresponding values for `C=CC(=O)N1CC2(CCN(c3nc(OCCCN4CCOCC4)nc4c(OCC)c(-c5c(C)ccc6[nH]ncc56)c(C=C)cc34)CC2)C1` [Example 85] are 56 nM, 17 nM and 27 nM.
As to `C=CC(=O)N1CC2(CCN(c3nc(OC4CCN(S(C)(=O)=O)CC4)nc4c(OCC(F)(F)F)c(-c5c(C)ccc6[nH]ncc56)c(C=C)cc34)CC2)C1` [Example 86], the results for the IC50 in assay [1], in assay [4] and in assay [3] were 72 nM, 12 nM and 37 nM, respectively.
Regarding `C=CC(=O)N1CC2(CCN(c3nc(OC4CCN(CCOC)CC4)nc4c(OCC(F)(F)F)c(-c5cccc6[nH]ncc56)c(C5CC5)cc34)CC2)C1` [Example 87], the figures for the IC50 in assay [1], in assay [4] and in assay [3] were 39 nM, 18 nM and 35 nM, respectively.
Consider `C=CC(=O)N1CC2(CCN(c3nc(OC4CCN(C(=O)OC)CC4)nc4c(OCC(F)(F)F)c(-c5c(C)ccc6[nH]ncc56)c(C=C)cc34)CC2)C1` [Example 88], for which the IC50 in assay [1] was 148 nM; in assay [4] it was 19 nM; in assay [3] it was 90 nM.
Regarding `C=CC(=O)N1CC2(CCN(c3nc(N4CCN(C)C(CC)C4)nc4c(OCC(F)(F)F)c(-c5c(C)ccc6[nH]ncc56)c(C=C)cc34)CC2)C1` (centres unmarked) [Example 89], the IC50 in assay [1] was 53 nM; in assay [4], 19 nM; in assay [3], 40 nM.
For `C=CC(=O)N1CC2(CCN(c3nc(OC4CCN(C(C)=O)CC4)nc4c(OCC(F)(F)F)c(-c5c(C)ccc6[nH]ncc56)c(C=C)cc34)CC2)C1` [Example 90], the IC50 in assay [1] turned out to be 55 nM; in assay [4] it was 22 nM; in assay [3] it was 53 nM.
The corresponding values for `C=CC(=O)N1CC2(CCN(c3nc(CC4CCN(CCOC)CC4)nc4c(OCC(F)(F)F)c(-c5c(C)ccc6[nH]ncc56)c(C=C)cc34)CC2)C1` [Example 91] are 42 nM, 22 nM and 39 nM.
Turning to `C=CC(=O)N1CC2(CCN(c3nc(OC4CCN(CC)CC4)nc4c(OC)c(-c5c(Cl)ccc6[nH]ncc56)c(C=C)cc34)CC2)C1` [Reference example 1, reference compound], the IC50 in assay [1] is 37 nM; in assay [4], 22 nM; in assay [3], 32 nM.
The corresponding values for `C=CC(=O)N1CC2(CCN(c3nc(OC[C@@H]4CCCN4C)nc4c(OC)c(-c5c(C)ccc6[nH]ncc56)c(C=C)cc34)CC2)C1` [Reference example 2, reference compound] are 35 nM, 17 nM and 22 nM.
